{"source": "patent US20080090895A1", "about": "“Novel Pharmaceutical Composition And Their Uses Thereof For Controlling The Different Forms Of Addiction To Drugs” (Trimaran Limited, priority 2004, published 2008)", "key": {"male mice of OF1 strain [1]": {"system": "male mice of OF1 strain", "conditions": "Baamonde et al., 1992; Browne, 1980; cited from earlier work"}, "male mice of OF1 strain [2]": {"system": "male mice of OF1 strain", "conditions": "Baamonde et al., 1992; cited from earlier work"}, "male mice of OF1 strain [3]": {"system": "male mice of OF1 strain", "experiment": "Measurement of the analgesia by the hotplate test", "assay_type": "in vivo", "procedure": "(§1) The animals used in this study are male mice of OF1 strain weighing about 20 g at the start of the experiments (Charles River, France). They live in an environment whose daily lighting cycle (07:30 h; 17:30 h) is constant throughout the year, and the temperature is maintained at about 22° C. The mice have free access to water and food, and the experiments are performed in accordance with the international rules on ethics in animal experimentation.\n(§2) The animals are treated chronically via the intraperitoneal route (IP) with amisulpride or physiological saline. The injections are performed twice a day, with an interval of about eight hours between each administration, over a period ranging between five days and three weeks. […] RB101 is administered on the day of the test intravenously (IV), 10 minutes before the start of the test (except for the measurements of locomotor activity performed immediately after injection).\n3.2 Measurement of the Analgesia by the Hotplate Test\nThe mice are placed individually inside a cylinder, on a plate heated to 52±1° C. by a water circuit. The lag time for the jumping of the mice is measured, the value 100 of the percentage of analgesia corresponding to a time limited to 240 seconds in order to avoid skin lesions. The test is performed 10 minutes after injection of RB101 (5 mg/kg, IV) or of the vehicle. The results are expressed as a percentage of analgesia calculated by means of the following formula: (mean of the jumping lag times for the treated group—mean of the jumping lag times for the control group)/(240−mean of the jumping lag times for the control group)×100. The results are expressed as mean ±sem."}, "male mice of OF1 strain [4]": {"system": "male mice of OF1 strain", "experiment": "Measurement of the locomotor activity", "assay_type": "in vivo"}, "male mice of OF1 strain [5]": {"system": "male mice of OF1 strain", "experiment": "Test of forced swimming (Porsolt's test): model of depression", "assay_type": "in vivo", "conditions": "0.25 mg/kg, IV", "procedure": "as §1, §2\n3.3 Test of Forced Swimming (Porsolt's Test): Model of Depression\nThe mice are placed individually in a cylindrical container filled to a height of 15 cm with water, the water being at room temperature. After a delay of 2 minutes, the total immobile time of the animal is measured for 4 minutes. The movements necessary for the animal to keep its head above water are not counted."}, "male mice of OF1 strain [6]": {"system": "male mice of OF1 strain", "experiment": "Conditioned preference of place: measurement of the psychic dependency", "assay_type": "in vivo", "procedure": "as §1, §2\n3.4 Conditioned Preference of Place: Measurement of the Psychic Dependency\nThe apparatus for conditioned preference of place consists of a box divided into three separate compartments: a black compartment with a smooth floor, a black and white stripy compartment with a rough floor, and a neutral central compartment.\nThe Test Proceeds in 3 Phases:\n• a pretest phase: the animal is placed in the neutral central compartment and has free access to the three compartments of the apparatus for 20 minutes. The time spent in each compartment is recorded using a camera connected to a computer. The mice showing a spontaneous preference for one of the compartments (i.e. spending more than 75% of the allotted time in one of the side compartments) are removed from the experiment.\nAfter this first session, the animals are randomized in order to assign a treatment to them (morphine or physiological saline, SC) and the compartment in which they will receive the drug (black or black and white stripy compartment). […]"}}, "note": "Structures can show the parent of a compound that is named as a salt."}
{"smiles": "CSCC[C@H](N)CSSCC(Cc1ccccc1)C(=O)N[C@@H](Cc1ccccc1)C(=O)OCc1ccccc1", "note": "(stereo partly drawn) [RB101]", "values": [{"measurement": "effect of the substance alone on locomotor activity in mice (literature)", "setting": "male mice of OF1 strain [1]", "value": "increase in locomotor activity"}, {"measurement": "effect of RB101 alone on immobile time in forced swimming (literature)", "setting": "male mice of OF1 strain [2]", "value": "reduces the immobile time"}, {"measurement": "percentage of analgesia (hotplate, jumping lag time)", "setting": "male mice of OF1 strain [3]; RB101 5 mg/kg IV on the day of the test, alone or after amisulpride treatment for five days (20 mg/kg IP twice/day)", "value": "38.4%±10.8%"}, {"measurement": "percentage of analgesia (hotplate, jumping lag time)", "setting": "male mice of OF1 strain [3]; RB101 dose effect, 5 mg/kg intravenously, 10 minutes before the test, mean ±sem", "value": "45.2%±10.6%"}]}
{"smiles": "CCC(=O)C(CC(C)N(C)C)(c1ccccc1)c1ccccc1", "note": "(stereo not drawn) [methadone, Methadone hydrochloride]", "values": [{"measurement": "effect of the substance alone on locomotor activity in mice (literature)", "setting": "male mice of OF1 strain [1]", "value": "hyperlocomotor activity"}, {"measurement": "analgesia of methadone alone in the hotplate test", "setting": "male mice of OF1 strain [3]; 0.25 mg/kg, IV", "value": "pronounced analgesia"}, {"measurement": "effect of methadone alone in locomotor activity", "setting": "male mice of OF1 strain [4]; 0.25 mg/kg, IV", "value": "did not show a significant effect"}, {"measurement": "effect of methadone alone in forced swimming", "setting": "male mice of OF1 strain [5]", "value": "did not show a significant effect"}]}
{"smiles": "CCN1CCCC1CNC(=O)c1cc(S(=O)(=O)CC)c(N)cc1OC", "note": "(stereo not drawn) [amisulpride]", "values": [{"measurement": "dose at which the reduction in locomotor activity is significant", "setting": "male mice of OF1 strain [4]; doses tested 0.5, 2, 10, 20 and 50 mg/kg", "value": "≥ 10", "unit": "mg/kg"}]}
{"smiles": "CN1CC[C@]23c4c5ccc(O)c4O[C@H]2[C@@H](O)C=C[C@H]3[C@H]1C5.Cl", "note": "[morphine, morphine hydrochloride]", "values": [{"measurement": "conditioned place preference (test 1)", "setting": "male mice of OF1 strain [6]; morphine 10 mg/kg SC conditioning, relative to the saline solution group", "value": "Place preference is observed"}, {"measurement": "conditioned place preference (test 2)", "setting": "male mice of OF1 strain [6]; morphine-conditioned mice, amisulpride 20 mg/kg IP twice a day for 5 days, RB101 IV on the day of test 2 (sixth day), or no such treatment, relative to control group", "value": "tendency toward persistence of the place preference"}, {"measurement": "conditioned place preference (test 3)", "setting": "male mice of OF1 strain [6]; morphine-conditioned mice, four days after test 2, no RB101 on the day of test 3, with or without prior amisulpride+RB101 treatment", "value": "A place preference is found"}]}
